According to ChEMBL document CHEMBL5038591, “Identification of a Novel TAR RNA-Binding Protein 2 Modulator with Potential Therapeutic Activity against Hepatocellular Carcinoma” (J Med Chem, 2021):
Activity calls are given as the source filed them. The rule behind the calls is not given here.

What was measured:
SK-HEP1 [1] = assay: Effect on human SK-HEP1 cells assessed as increase in miR-497-5p level by qRT-PCR analysis; assay type: functional, cell-based
MHCC97 [2] = assay: Inhibition of colony formation in human MHCC97H cells at 30 uM incubated for 14 days by crystal violet staining based assay; assay type: functional, cell-based; conditions: time 14.0 day
Mus musculus = assay: Downregulation of TPX2 expression in mouse liver at 40 mg/kg measured after 30 days by immunohistochemical staining analysis; assay type: functional, organism-based; conditions: time 30.0 day
SK-HEP1 [3] = assay: Antiproliferative activity against human SK-HEP1 cells assessed as increase in miR-106b-5p level at 20 uM by qRT-PCR analysis; assay type: functional, cell-based
SK-HEP1 [4] = assay: Inhibition of epithelial-mesenchymal transition in human SK-HEP1 cells assessed as change in beta-catenin expression at 10 to 50 uM incubated for 24 hrs by Western blot analysis; assay type: functional, cell-based; conditions: dose 10-50 µM
MHCC97 [5] = assay: Antitumor activity against human MHCC97 cells xenografted in SCID mouse assessed as decrease in tumor size at 20 mg/kg, ip administered once every 3 days and measured after 10 days; assay type: functional, organism-based; conditions: time 10.0 day
Huh-7 = assay: Antiproliferative activity against human Huh-7 cells at 25 uM incubated for 24 hrs by alamar blue assay; assay type: functional, cell-based
SK-HEP1 [6] = assay: Effect on human SK-HEP1 cells assessed as decrease in miR-10b-5p level at 10 to 50 uM by qRT-PCR analysis; assay type: functional, cell-based; conditions: dose 10-50 µM
SK-HEP1 [7] = assay: Induction of cell cycle arrest in human SK-HEP1 cells assessed as G2 phase accumulation at 20 uM incubated for 24 hrs by propidium iodide staining based flow cytometry analysis (reference value: 24.12%); assay type: functional
[8] = target: Signal transducer and activator of transcription 3 (Homo sapiens) (UniProt P40763); assay: Inhibition of STAT3 phosphorylation in human SK-HEP1 cells at 30 uM by Western blot analysis; assay type: cell-based
Signal transducer and activator of transcription 3 (Homo sapiens), sequence (P40763 whole entry): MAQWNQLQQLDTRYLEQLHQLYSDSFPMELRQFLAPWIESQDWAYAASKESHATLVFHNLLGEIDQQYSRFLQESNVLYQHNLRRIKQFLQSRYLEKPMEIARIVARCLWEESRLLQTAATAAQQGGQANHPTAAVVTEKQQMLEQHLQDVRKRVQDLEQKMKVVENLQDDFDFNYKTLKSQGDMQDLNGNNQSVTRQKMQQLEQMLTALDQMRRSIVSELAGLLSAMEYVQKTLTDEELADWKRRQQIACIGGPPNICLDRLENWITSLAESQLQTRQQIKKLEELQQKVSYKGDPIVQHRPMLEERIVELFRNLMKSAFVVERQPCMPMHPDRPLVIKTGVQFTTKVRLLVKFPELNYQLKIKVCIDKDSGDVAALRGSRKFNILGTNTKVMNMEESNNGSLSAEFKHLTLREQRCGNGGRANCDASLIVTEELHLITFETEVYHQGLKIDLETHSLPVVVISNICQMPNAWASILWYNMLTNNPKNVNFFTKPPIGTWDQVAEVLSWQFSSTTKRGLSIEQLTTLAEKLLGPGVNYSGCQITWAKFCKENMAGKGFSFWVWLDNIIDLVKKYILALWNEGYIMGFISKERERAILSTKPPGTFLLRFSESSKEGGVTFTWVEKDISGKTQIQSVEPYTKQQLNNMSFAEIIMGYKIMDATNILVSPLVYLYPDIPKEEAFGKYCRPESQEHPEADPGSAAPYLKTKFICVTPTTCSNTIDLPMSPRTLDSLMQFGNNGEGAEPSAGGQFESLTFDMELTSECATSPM

[9] = target: Serine/threonine-protein kinase AKT (Homo sapiens) (UniProt P31751+Q9Y243+P31749); assay: Inhibition of AKT phosphorylation in human SK-HEP1 cells at 30 uM by Western blot analysis; assay type: cell-based
Serine/threonine-protein kinase AKT (Homo sapiens), sequence (P31749 whole entry, looked up): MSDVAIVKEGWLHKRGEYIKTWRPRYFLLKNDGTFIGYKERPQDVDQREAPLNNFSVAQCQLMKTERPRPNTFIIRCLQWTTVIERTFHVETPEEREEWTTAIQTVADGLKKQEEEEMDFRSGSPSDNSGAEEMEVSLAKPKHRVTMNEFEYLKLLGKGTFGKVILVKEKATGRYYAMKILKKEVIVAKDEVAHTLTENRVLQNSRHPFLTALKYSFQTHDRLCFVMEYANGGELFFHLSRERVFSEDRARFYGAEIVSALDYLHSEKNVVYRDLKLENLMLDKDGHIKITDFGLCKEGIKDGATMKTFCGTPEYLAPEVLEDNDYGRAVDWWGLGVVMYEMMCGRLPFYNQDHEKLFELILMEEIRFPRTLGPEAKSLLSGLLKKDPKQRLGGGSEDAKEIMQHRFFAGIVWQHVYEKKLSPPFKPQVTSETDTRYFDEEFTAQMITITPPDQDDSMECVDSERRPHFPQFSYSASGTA
Serine/threonine-protein kinase AKT (Homo sapiens), sequence (P31751 whole entry, looked up): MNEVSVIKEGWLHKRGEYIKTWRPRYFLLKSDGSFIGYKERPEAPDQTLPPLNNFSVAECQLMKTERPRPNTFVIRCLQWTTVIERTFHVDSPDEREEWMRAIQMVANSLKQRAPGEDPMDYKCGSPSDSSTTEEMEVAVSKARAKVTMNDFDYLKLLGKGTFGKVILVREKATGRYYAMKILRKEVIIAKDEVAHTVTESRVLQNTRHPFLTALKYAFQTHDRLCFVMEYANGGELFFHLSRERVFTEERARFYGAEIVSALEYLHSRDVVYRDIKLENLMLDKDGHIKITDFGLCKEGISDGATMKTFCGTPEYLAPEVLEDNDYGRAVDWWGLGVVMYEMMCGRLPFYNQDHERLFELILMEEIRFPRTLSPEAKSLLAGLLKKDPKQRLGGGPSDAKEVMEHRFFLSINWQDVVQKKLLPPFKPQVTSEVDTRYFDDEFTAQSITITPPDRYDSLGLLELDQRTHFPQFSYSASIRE
Serine/threonine-protein kinase AKT (Homo sapiens), sequence (Q9Y243 whole entry, looked up): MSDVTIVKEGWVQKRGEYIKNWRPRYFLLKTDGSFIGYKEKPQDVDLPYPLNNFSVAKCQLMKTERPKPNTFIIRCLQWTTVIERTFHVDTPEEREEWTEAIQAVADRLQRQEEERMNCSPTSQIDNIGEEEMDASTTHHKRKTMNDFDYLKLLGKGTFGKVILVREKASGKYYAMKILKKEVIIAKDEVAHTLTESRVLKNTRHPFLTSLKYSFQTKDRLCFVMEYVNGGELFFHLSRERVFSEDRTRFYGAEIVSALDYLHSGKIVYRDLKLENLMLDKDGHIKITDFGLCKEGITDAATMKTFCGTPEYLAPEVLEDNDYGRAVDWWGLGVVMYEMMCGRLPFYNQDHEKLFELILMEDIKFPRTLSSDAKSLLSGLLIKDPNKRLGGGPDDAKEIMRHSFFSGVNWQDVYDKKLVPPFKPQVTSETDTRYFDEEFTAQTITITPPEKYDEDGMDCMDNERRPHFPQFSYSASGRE

[10] = target: T1, Inhibitor of nuclear factor kappa-B kinase subunit beta (Homo sapiens) (UniProt O14920); assay: Inhibition of IkappaB phosphorylation in human SK-HEP1 cells at 30 uM by Western blot analysis; assay type: cell-based
T1 sequence (whole entry): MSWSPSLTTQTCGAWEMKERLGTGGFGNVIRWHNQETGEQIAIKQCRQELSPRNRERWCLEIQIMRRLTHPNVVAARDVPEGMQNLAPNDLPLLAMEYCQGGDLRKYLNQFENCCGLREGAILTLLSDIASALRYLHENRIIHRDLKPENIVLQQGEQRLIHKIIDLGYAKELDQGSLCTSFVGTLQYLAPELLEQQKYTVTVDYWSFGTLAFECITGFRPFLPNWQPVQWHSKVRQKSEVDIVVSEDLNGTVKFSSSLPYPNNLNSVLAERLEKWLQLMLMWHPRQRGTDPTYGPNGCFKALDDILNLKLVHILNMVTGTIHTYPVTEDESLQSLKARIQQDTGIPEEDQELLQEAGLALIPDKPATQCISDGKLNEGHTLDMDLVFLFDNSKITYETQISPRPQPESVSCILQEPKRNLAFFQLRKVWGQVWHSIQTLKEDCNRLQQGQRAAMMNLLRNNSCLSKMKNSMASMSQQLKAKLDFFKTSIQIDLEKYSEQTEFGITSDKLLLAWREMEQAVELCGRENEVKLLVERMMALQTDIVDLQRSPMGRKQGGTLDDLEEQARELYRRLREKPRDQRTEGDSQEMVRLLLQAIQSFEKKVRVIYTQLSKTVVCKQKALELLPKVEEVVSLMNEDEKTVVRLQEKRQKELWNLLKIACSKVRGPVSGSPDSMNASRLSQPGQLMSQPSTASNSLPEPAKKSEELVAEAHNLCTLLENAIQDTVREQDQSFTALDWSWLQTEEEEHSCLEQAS

## COc1cc2c(c(O)c1OC)-c1c(cc3c(c1OC)OCO3)C[C@H](C)[C@H](C)C2
SK-HEP1 [1]
  Activity: Dose-Dependent Effect
MHCC97 [2]
  inhibition: Active
Mus musculus
  Activity: Active
SK-HEP1 [3]
  Activity: Active
SK-HEP1 [4]
  inhibition: inactive
MHCC97 [5]
  Activity: Active
Huh-7
  Activity: Active
SK-HEP1 [6]
  Activity: Active
SK-HEP1 [7]
  Activity: 19.68%
[8]
  inhibition: inactive
[9]
  inhibition: Active
[10]
  inhibition: Active
